Test [1] has as its system Staphylococcus aureus. The test is described as follows: Antimicrobial activity against Staphylococcus aureus ATCC 29213 incubated at 37 degC for 24 hrs by agar dilution method. Particulars: ATCC 29213, 24 h. A general note: In agar dilution, organisms are placed on agar that contains the substance at set levels.
The test system of test [2] is Staphylococcus aureus. The test is described as follows: Antimicrobial activity against Staphylococcus aureus isolate CIP 107907 harboring vgaA gene incubated at 37 degC for 24 hrs by agar dilution method. Particulars: isolate CIP 107907, 24 h.
In test [3] the test system is Staphylococcus epidermidis. Description: Antimicrobial activity against lincomycin resistant Staphylococcus epidermidis isolate 102OL harboring lnuA gene incubated at 37 degC for 24 hrs by agar dilution method.
Test [4] relates to Staphylococcus haemolyticus. Description: Antimicrobial activity against lincomycin resistant Staphylococcus haemolyticus isolate 123PL harboring lnuA gene incubated at 37 degC for 24 hrs by agar dilution method.
In test [5] the test system is Staphylococcus epidermidis. Description: Antimicrobial activity against erythromycin resistant Staphylococcus epidermidis isolate 129OV harboring msrA gene incubated at 37 degC for 24 hrs by agar dilution method.
Test [6] has as its system Staphylococcus haemolyticus. Description: Antimicrobial activity against erythromycin resistant Staphylococcus haemolyticus isolate 202BB harboring msrA gene incubated at 37 degC for 24 hrs by agar dilution method.
Test [7] deals with Staphylococcus haemolyticus. Description: Antimicrobial activity against lincomycin, clindamycin resistant Staphylococcus haemolyticus isolate 29OL harboring vgaALC gene incubated at 37 degC for 24 hrs by agar dilution method.
For test [8], the system named is Staphylococcus haemolyticus. Description: Antimicrobial activity against erythromycin, lincomycin resistant Staphylococcus haemolyticus isolate 113OL harboring msrA lnuA gene incubated at 37 degC for 24 hrs by agar dilution method.
Test [9] deals with Staphylococcus epidermidis. Description: Antimicrobial activity against erythromycin, lincomycin, clindamycin resistant Staphylococcus epidermidis isolate 44KR harboring ermC gene incubated at 37 degC for 24 hrs by agar dilution method.
The test system of test [10] is Staphylococcus haemolyticus. Description: Antimicrobial activity against erythromycin, lincomycin, clindamycin resistant Staphylococcus haemolyticus isolate 134PL harboring ermC gene incubated at 37 degC for 24 hrs by agar dilution method.
The test system of test [11] is Staphylococcus haemolyticus. The test is described as follows: Antimicrobial activity against erythromycin, lincomycin, clindamycin resistant Staphylococcus haemolyticus isolate 65OL harboring ermC vgaALC gene incubated at 37 degC for 24 hrs by agar dilution method.
For test [12], the system named is Staphylococcus epidermidis. The test is described as follows: Antimicrobial activity against erythromycin, lincomycin, clindamycin resistant Staphylococcus epidermidis isolate 1036UL harboring ermC vgaALC gene incubated at 37 degC for 24 hrs by agar dilution method.
Test [13] concerns Staphylococcus epidermidis. The test is described as follows: Antimicrobial activity against erythromycin, lincomycin, clindamycin resistant Staphylococcus epidermidis isolate 32OL harboring msrA lnuA vgaALC gene incubated at 37 degC for 24 hrs by agar dilution method.
For test [14], the system named is Staphylococcus epidermidis. Description: Antimicrobial activity against erythromycin, inducible lincomycin, inducible clindamycin resistant Staphylococcus epidermidis isolate 32PL harboring ermC gene incubated at 37 degC for 24 hrs by agar dilution method.
The test system of test [15] is Staphylococcus haemolyticus. The test is described as follows: Antimicrobial activity against erythromycin, inducible lincomycin, inducible clindamycin resistant Staphylococcus haemolyticus isolate 31UL harboring ermC gene incubated at 37 degC for 24 hrs by agar dilution method.

Converted amounts (≈) assume the structure as drawn. Where only a bound is given, the exact number is not on record here.

The term MIC denotes the lowest concentration found to suppress growth.

As to `CCC[C@@H]1C[C@@H](C(=O)N[C@@H]([C@H]2O[C@H](SC)[C@H](O)[C@@H](O)[C@H]2O)[C@@H](C)O)N(C)C1` [LINCOMYCIN], the MIC came to 1 µg/mL (≈ 2.46 µM) against Staphylococcus aureus [1]; 4 µg/mL (≈ 9.84 µM) in the test on Staphylococcus aureus [2]; 64 µg/mL (≈ 157 µM) in [3]; 128 µg/mL (≈ 315 µM) in test [4]; 1 µg/mL (≈ 2.46 µM) in test [5]; 1 µg/mL (≈ 2.46 µM) in test [6]. The minimum inhibitory concentration (MIC) is 64 µg/mL (≈ 157 µM) in [7]; 128 µg/mL (≈ 315 µM) in test [8]; 64 µg/mL (≈ 157 µM) in test [9]; 32 µg/mL (≈ 78.7 µM) in [10]; 128 µg/mL (≈ 315 µM) in [11]; above 256 µg/mL in [12]. The MIC in [13] is above 256 µg/mL; in [14], 1 µg/mL (≈ 2.46 µM); in test [15], 1 µg/mL (≈ 2.46 µM).
`CCC[C@@H]1C[C@@H](C(=O)N[C@@H]([C@H]2O[C@H](SC)[C@H](O)[C@@H](O)[C@H]2O)[C@H](C)Cl)N(C)C1` [CLINDAMYCIN]: the MIC in the test on Staphylococcus aureus [1] came to 0.125 µg/mL (≈ 0.294 µM); in the test with Staphylococcus aureus [2], 0.25 µg/mL (≈ 0.588 µM); in [3] it was 1 µg/mL (≈ 2.35 µM); in [4], 2 µg/mL (≈ 4.71 µM); in [5] it was 0.25 µg/mL (≈ 0.588 µM); in [6], 0.125 µg/mL (≈ 0.294 µM). The MIC in [7] was 16 µg/mL (≈ 37.6 µM); in test [8] it was 1 µg/mL (≈ 2.35 µM); in test [9], above 16 µg/mL; in test [10] it was above 16 µg/mL; in test [11] it was 4 µg/mL (≈ 9.41 µM); in test [12] it was above 16 µg/mL. Moreover, the figures for the minimal inhibitory concentration (MIC) in [13], in test [14] and in test [15] were 16 µg/mL (≈ 37.6 µM), 0.125 µg/mL (≈ 0.294 µM) and 0.5 µg/mL (≈ 1.18 µM), respectively.
Take `CCCCC[C@@H]1C[C@@H](C(=O)N[C@@H]([C@H]2O[C@H](SC)[C@H](O)[C@@H](O)[C@H]2O)[C@@H](C)O)N(C)C1`: the minimal inhibitory concentration (MIC) in the test with Staphylococcus aureus [1] worked out at 0.25 µg/mL (≈ 0.575 µM); in the test with Staphylococcus aureus [2], 0.5 µg/mL (≈ 1.15 µM); in test [3], 2 µg/mL (≈ 4.6 µM); in test [4], 8 µg/mL (≈ 18.4 µM); in [5], 0.25 µg/mL (≈ 0.575 µM); in test [6], 0.25 µg/mL (≈ 0.575 µM). For the same molecule, the MIC in test [7] is 32 µg/mL (≈ 73.6 µM); in test [8], 8 µg/mL (≈ 18.4 µM); in test [9], 64 µg/mL (≈ 147 µM); in test [10], 32 µg/mL (≈ 73.6 µM); in [11] it was 128 µg/mL (≈ 295 µM); in test [12], 64 µg/mL (≈ 147 µM). In addition, the MIC in test [13] amounted to 64 µg/mL (≈ 147 µM); in test [14], 0.25 µg/mL (≈ 0.575 µM); in [15] it was 0.5 µg/mL (≈ 1.15 µM).
